We go through one compound from publication PMC5513211, “PA-6 inhibits inward rectifier currents carried by V93I and D172N gain-of-function KIR2.1 channels, but increases channel protein expression” (Journal of Biomedical Science, 2017).

Positions count from the first letter of the chain named. Where two headings read alike, the source gives them in different places.

One may read the inhibition as the share of the control response that was lost under treatment. As usually defined, the IC50 is the concentration that inhibits the measured activity by half.

Assay [1] has as its target T1, WT KIR2.1 (Homo sapiens, UniProt P63252).
T1 construct: expressed in transfected cells; host or cells: HEK293T
T1 sequence (P63252 1-427): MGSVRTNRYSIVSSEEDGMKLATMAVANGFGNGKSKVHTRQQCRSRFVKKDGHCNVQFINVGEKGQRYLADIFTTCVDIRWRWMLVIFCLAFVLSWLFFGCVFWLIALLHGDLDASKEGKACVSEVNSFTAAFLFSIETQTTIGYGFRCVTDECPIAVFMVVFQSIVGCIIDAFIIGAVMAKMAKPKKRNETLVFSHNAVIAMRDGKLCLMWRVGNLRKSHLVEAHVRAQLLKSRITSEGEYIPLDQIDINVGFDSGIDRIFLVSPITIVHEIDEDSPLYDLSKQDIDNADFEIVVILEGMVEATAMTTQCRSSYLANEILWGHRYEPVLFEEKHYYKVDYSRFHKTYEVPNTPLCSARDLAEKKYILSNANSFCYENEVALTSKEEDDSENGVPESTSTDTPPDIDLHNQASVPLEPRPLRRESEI
Put plainly: Whole cell patch clamp, WT KIR2.1 currents. Format: cell-based. To be noted: whole cell mode. How it is done:
Mutations V93I and D172N were engineered into a human KCNJ2-pcDNA3 expression construct, using the QuikChange II XL Site-Directed Mutagenesis Kit (Stratagene, La Jolla, CA) and custom designed primers. The presence of the introduced mutations was confirmed by Sanger sequencing.
Whole cell patch clamp measurements were done as described before using an AxoPatch 200B amplifier controlled by pClamp9 software (Molecular devices, Sunnyvale, CA, USA) at 21 °C. Whole cell IKIR2.1 measurements were performed by applying 1 s test pulses ranging between −120 and +30 mV, in 10 mV increments, from a holding potential of −40 mV, and with series resistance compensation of at least 70%. Steady state current at the end of the pulse was normalized to cell capacitance and plotted versus test potential (corrected for liquid junction potential). Extracellular solution contained 140 mM NaCl, 5 mM KCl, 1 mM CaCl2, 1 mM MgCl2, 6 mM glucose, 17.5 mM NaHCO3, 15 mM HEPES, pH 7.4/NaOH. Pipette solution contained 125 mM potassium gluconate, 10 mM KCl, 5 mM HEPES, 5 mM EGTA, 2 mM MgCl2, 0.6 mM CaCl2, 4 mM Na2ATP, pH 7.20/KOH.
(In general: In patch-clamp work, channel activity is measured electrically.)

For a further assay, the target named is T2, D172N KIR2.1 (Homo sapiens, UniProt P63252, D172N).
T2 construct: expressed in transfected cells; host or cells: HEK293T
T2 sequence (P63252 1-427 D172N): T1 sequence (P63252 1-427) with D172N
Description: Western blot of KIR2.1 expression, transiently transfected HEK293T cells, D172N. Type of assay: cell-based. To be noted: 24 h. Here is the method:
HEK293T cells were grown in 60 mm culture dishes containing 3 mL DMEM supplemented with 10% FCS, L-Glutamine and Pen-Strep, and transfected using linear polyethylenimine (PEI) (PolysciencesInc, Eppelheim, Germany) as described earlier. Cell lysates were prepared in buffer D (20 mM HEPES, 125 mM NaCl, 10% glycerol, 1 mM EDTA, 1 mM EGTA, 1 mM dithiothreitol, and 1% Triton X-100, pH 7.6, supplemented with 1 mM PMSF and 10 μg/mL aprotinin). 20 μg protein lysate was separated by 10% SDS-PAGE and blotted onto nitrocellulose membrane. Ponceau staining was used to reveal equal protein loading and subsequent quantification. Blots were blocked with 5% (v/v) […] in TBST (20 mM Tris-HCl pH 8.0, 150 mM NaCl, 0.05% (v/v) Tween-20) for 1 h at room temperature. KIR2.1 WT and mutants were detected by N-terminal KIR2.1 antibody (Santa Cruz Biotechnology, Dallas Tx, USA, cat. No. sc-18708) and peroxidase-conjugated donkey anti-goat secondary antibody (Jackson ImmunoResearch, West Grove, PA, cat. No. 705-035-003) followed by ECL detection procedure (GE Healthcare, Hoevelaken, The Netherlands). For quantification purposes, untransfected HEK293T cells were used as blank and protein levels were normalized to ponceau staining levels. Differences between group averages were tested by using a one-way ANOVA with a Bonferroni’s post-hoc test.
(A western blot detects proteins with antibodies after separation by electrophoresis.)

The subject of assay [2] is WT, V93I and D172N KIR2.1 channels. Put plainly: Immunofluorescence microscopy of KIR2.1 localization in MES-1 cells. Format: cell-based, human. To be noted: 5 μM, 24 h. Here is the method:
HEK293T and MES-1 cells were cultured on pre-coated (0.1% gelatin) glass coverslips and transfected using Lipofectamin (Invitrogen, Breda, The Netherlands). Cell fixation, immunolabeling and imaging were performed exactly as described earlier. […] HEK293T cells were imaged by confocal microscopy using a Zeiss LSM 700 confocal microscope (Carl Zeiss Microscopy GmbH, Germany) equipped with a 63× oil immersion objective (NA 1.4). […] MES-1 cells were imaged using a conventional Nikon eclipse 80i light microscopy equipped with a 40× objective (NA 0.75).

Another assay concerns IK1 / KIR2.1 ion channel. Also on record: method as in PMID 23625347. To be noted: inside-out patch clamp methodology; read-out: IC50, IK1 inhibition; cited from earlier work.
Assay [3] has as its system WT KIR2.1. To be noted: 10 μM, cells stably expressing GFP-tagged KIR2.1; cited from earlier work.
Setting [4] is: at −50 mV, read-out: Inhibition of outward IK1.
Setting [5] is: at −110 mV, read-out: Inhibition of inward IK1.

Turning to `N=C(Nc1ccc(OCCCCCOc2ccc(NC(=N)c3ccccc3)cc2)cc1)c1ccccc1` [PA-6], the inhibition at 1 µM at WT KIR2.1 [1] (setting [4]) came to 28 ± 36%; on WT KIR2.1 [1] (setting [5]), 30 ± 16%. Moreover, the inhibition at 3 µM on WT KIR2.1 [1] (setting [4]) came out at 94 ± 6%; on WT KIR2.1 [1] (setting [5]), 68 ± 15%. For the same compound, the results for the IC50 on WT KIR2.1 [1] and in the assay with IK1 / KIR2.1 ion channel were 1000 to 3000 nM and 14 nM, respectively. Also, the “Increase of KIR2.1 expression level” value at D172N KIR2.1 (5 μM) came to 4.8 ± 2.0 fold. For the same compound, the “Effect on KIR2.1 expression level at lower concentrations” value on D172N KIR2.1 (0.2 and 1 μM) is listed as “did not result in significant increased expression”. The “Subcellular location of KIR2.1 channels” value in assay [2] is reported as “resulted in intracellular accumulation”. Besides, the “Effect on WT KIR2.1 expression” value with WT KIR2.1 [3] is on record as “able to enhance expression of WT KIR2.1”.
